Test results from ChEMBL document CHEMBL1128105, “Synthesis of new azino fused benzimidazolium salts. a new family of DNA intercalating agents. I” (Bioorg Med Chem Lett, 1995).

system: HT-29; assay: In vitro inhibitory activity against colon carcinoma HT-29 cells after 72 hr using in-house program; assay type: functional, cell-based; conditions: Homo sapiens, HT-29, 72 h

Structure (SMILES)	EC50 [µM]
c1ccc(Cn2c3ccccc3[n+]3nc4c(cc23)-c2cccc3cccc-4c23)cc1	1.5
c1ccc(Cn2c3ccccc3[n+]3nc4c(c(-c5ccccc5)c23)-c2cccc3cccc-4c23)cc1	3.7
Cn1c2ccccc2[n+]2nc3c(cc12)-c1cccc2cccc-3c12	3.7
COC(=O)c1ccc(Cn2c3ccccc3[n+]3nc4c(cc23)-c2cccc3cccc-4c23)cc1	24
CCOC(=O)c1c2c(cc3n(Cc4ccccc4)c4ccccc4[n+]13)-c1cccc3cccc-2c13	2.1
NCCNC(=O)Cn1c2ccccc2[n+]2nc3c(cc12)-c1cccc2cccc-3c12	> 100
Nn1c2ccccc2[n+]2nc3c(cc12)-c1cccc2cccc-3c12	37
CCOC(=O)Cn1c2ccccc2[n+]2nc3c(cc12)-c1cccc2cccc-3c12	54
CCOC(=O)Cn1c2ccccc2[n+]2c(C(=O)OCC)c3c(cc12)-c1cccc2cccc-3c12	1.8
